Measurements taken from publication PMC11542593, “Vascular endothelial growth factor receptor 2 as a potential host target for the inhibition of enterovirus replication” (Journal of Virology, 2024).

Columns and labels:
VEGFR2 = system: VEGFR2; parameters: method as in PMID 17620431; conditions: cited from earlier work
[1] = CellTiter-Glo luminescent cell viability assay (cytotoxicity); conditions: human, RD cells
Description: Fig. S1. (A) RD cells were treated with the indicated concentrations of inhibitors and incubated at 37°C for 24 h. CellTiter‐Glo® luminescent cell viability assay was used to measure the CC50 of selected inhibitors. […] (B) RD cells treated with the selected inhibitors (10 μM) were inoculated with EV-A71 at an MOI of 0.01. At 48 hpi, cells were harvested to detect the expression level of VP1 by western blotting.

EV-A71 [2] = experiment: EV-A71 inactivation (virucidal) assay; parameters: species or system Human enterovirus A71; conditions: 10 µM, 2 h at 25°C, TCID50
Description: Fig. S5. […] (A) EV-A71 inactivation assay. […] (B) EV-A71 attachment assay. […] After 2 hpi, the infectious inoculum was removed and cells were washed again. The intracellular viral RNA load was then determined using RT-qPCR analysis. (C) EV-A71 entry assay.

EV-A71 [3] = experiment: Cytopathic effect (CPE) inhibition assay in RD cells; assay type: cell-based, Human enterovirus A71; conditions: Enterovirus A, EVA71, RD, read-out: EC50, compound concentration required to achieve 50% protection from virus-induced cytopathogenicity
EV-A71 [4] = experiment: Time-of-drug addition assay in RD cells; assay type: cell-based, Human enterovirus A71; conditions: MOI 1, read at 12 hpi
Description: RD cells were seeded into 24-well plates or eight-well chamber slides (Millicell) 1 day before infection with EV-A71 at an MOI of 1. After adsorption for 2 h, the cells were washed with PBS once to remove the unbound virus and maintained in DMEM supplemented with 2% FBS. […] At 12 hpi, the virus from the culture supernatant were collected, and the relative viral gene copy was detected by RT-qPCR. Meanwhile, the virus titer was assessed using TCID50 assay as described before. To analyze VP1 expression, the cells in the eight-well chamber slides were fixed and then monitored using immunofluorescence staining.
(A) Graphical scheme illustrating the experimental design. (B) RT-qPCR measured the amount of viral RNA released into culture supernatant. (C) Viral titer was determined in TCID50 assays. […] Nuclei are counterstained with DAPI (blue). Scale bar, 50 µm.

CVB1 = experiment: Antiviral activity against CVB1 in BGMK cells (RT-qPCR, TCID50); assay type: cell-based, coxsackievirus B1; conditions: 10 µM, 0.1 MOI, 24 h
Description: Detection of cellular mRNA expression and viral load was performed as described previously ([24]). In brief, the infected or mock-infected cells were lysed and applied to total RNA extraction by using the MiniBEST Universal RNA Extraction Kit (TaKaRa, Code No.9767). Viral RNA in the supernatant was extracted with the MiniBEST Viral RNA Extraction Kit (TaKaRa, Code No.9766). Reverse transcription was performed using the PrimeScript RT reagent Kit (TaKaRa, Code No.PR037A) with an oligo (dT) primer. The resultant cDNAs were used for qPCR assay with the Light Cycler 480 SYBR Green I Master Mix (Roche) to measure the mRNA expression level of cellular genes or viral load in supernatants. The relative viral gene copy was determined by RT-qPCR, using GAPDH as an internal reference.
The viral titer in the indicated samples was determined by TCID50 assay as described previously ([25]). Briefly, serially diluted samples from 10^−1 to 10^−8 in DMEM were inoculated to RD cells, BGMK cells, or MRC-5 in 96‐well plates. The cells were then incubated for 2 to 3 days at 37°C. TCID50 was calculated by counting the wells with cytopathic effect in infected cells using the Reed–Muench method.
The viral gene copy in the cell lysate is normalized with the transcript of GAPDH and presented. Viral titers were also detected by TCID50 assay. […] All experiments were independently repeated thrice.

EV-A71 [5] = experiment: Multi-cycle virus growth assay in RD cells (TCID50); assay type: cell-based, Human enterovirus A71; conditions: 10 µM, MOI 0.01, entire time-course
From the text: RD cells were infected with EV‐A71 at an MOI of 0.01. Viral titers in cell culture supernatants were quantified by TCID50 assay at indicated time points. […] RD cells were infected with EV‐A71 at an MOI of 1. […] At 12 hpi, the cells were lysed for detecting mRNA expression levels of proinflammatory cytokines and chemokines. IL-6, interleukin 6; IL-8, interleukin 8; TNF-α, tumor necrosis factor-α.

VEGFR1 = system: VEGFR1; parameters: method as in PMID 17620431; conditions: cited from earlier work
EV-A71 [6] = experiment: EV-A71 replication in multiple cell types (293T, Vero-E6, Huh7, HepG2, HT-29, Caco2); assay type: cell-based, Human enterovirus A71; conditions: Vero-E6, Huh7, HepG2 (MOI 1), HT-29, Caco2 (MOI 2), 24 hpi

In the case of `Cc1ccc(Nc2nccc(N(C)c3ccc4c(C)n(C)nc4c3)n2)cc1S(N)(=O)=O` [Pazopanib], the IC50 (VEGFR2) is given as […], the CC50 at 24 h [1] is given as 226 ± 27.6 µM and the “virucidal effect (EV-A71 virus titers vs DMSO)” value (EV-A71 [2]) is given as “no virucidal effect”. The EC50 (EV-A71 [3]) was 0.89 ± 0.02 µM, the “inhibitory effect, late treatment” value (EV-A71 [4]; 10 µM added at 6 to 10 hpi) was “no significant inhibitory effect” and the “viral load and viral titer of progeny virions in culture medium, early treatment” value (EV-A71 [4]; 10 µM added at −2 h, 0 h, 2 h, 4 h) was “significantly reduced”. The “decrease in viral load and viral titer” value (CVB1) was “over 2 logs”, the “decrease of viral titers in the cell supernatant vs DMSO” value (EV-A71 [5]) was “over 4 logs” and the IC50 (VEGFR1) was 0.01 µM. For the same compound, the “EV-A71 replication in cell culture supernatants of multiple cell types” value (EV-A71 [6]) was “significantly reduced”.
